≈ marks a conversion by molar mass, not a printed value. Read-outs that look alike come from different tables or passages of the source.
Experiments:
[1] = test system: sea lice (L. salmonis); assay: Bioassay of sea lice strains' sensitivity to azamethiphos (exposure to increasing concentrations); type: in vivo; settings: Lepeophtheirus salmonis
Description: (§1) The parasites had to be tested by a bioassay method, i.e. exposure to increasing concentrations of the agent to see how much they tolerated. As no bioassay method for salmon lice sensitivity towards azamethiphos was published, an unpublished protocol had to be used, with necessary adaptations. To be on the safe side, small scale laboratory treatments with fish infected with parasites containing only the wild-type enzyme versus fish infected with parasites containing the mutation were also successfully performed and confirmed the bioassay results.
The sensitivity of the strains analyzed was tested by traditional bioassays and small scale treatments (Helgesen et al., 2013). The history of the strains were LSAlta: Sampled 2010, inbred for approx. 10 generations. Fully sensitive to all agents LSBjugn: Sampled 2008, inbred for approx. 15 generations. Moderately resistant to azamethiphos, pyrethroids and emamectin benzoate. LSGulen: Sampled in 2004, inbred for approx. 25 generations. Fully sensitive to all agents LSHitra: Sampled in 2011. Resistant towards azamethiphos (not tested for other agents). Inbred for approx. 7 generations. LSHitra-s: Subset of LSHitra where fish with parasites were treated with 100 ppb azamethiphos (Salmosan™) for 30 minutes in a 200 liter fibre-glass tank. The subset is the surviving parasites after treatment. LSVeso: Sampled in 2012 in the field (Otterøya) shortly after a full-scale treatment with azamethiphos in the farm. Only surviving parasites were sampled.

[2] = test system: acetyl cholin esterase from sea lice (L. salmonis); settings: within 2 minutes, 0.01 µM azamethiphos, samples collected 2000 - 2002, cited from earlier work
[3] = test system: sea lice (L. salmonis); assay: Small scale laboratory treatment of fish infected with salmon lice; type: in vivo, Lepeophtheirus salmonis; settings: 100 ppb azamethiphos
Description: as §1
The strains were: LSAlta: Sampled 2010, inbred for approx. 10 generations. No history of insensivity towards azamethiphos. LSBjugn: Sampled 2008, inbred for approx. 15 generations. History of insensitivity towards azamethiphos. LSGulen: Sampled in 2004, inbred for approx. 25 generations. No history of insensivity towards azamethiphos. LSHitra: Sampled in 2011, inbred for approx. 7 generations. History of insensitivity towards azamethiphos. LSHitra-s: Subset of LSHitra where fish with parasites were treated with 100 ppb azamethiphos (Salmosan™) for 30 minutes in a 200 liter fibre-glass tank. The subset is the surviving parasites after treatment. […]
The sensitivity of the strains analyzed was tested by traditional bioassays and small scale treatments (Helgesen et al., 2013). […]

[4] = molecular target: Phe371Tyr, Drosophila amino acid sequence (Drosophila melanogaster, UniProt P07140, F409Y); settings: Phe371Tyr mutant versus wild type enzyme; cited from earlier work

| Structure (SMILES) | EC50 ([1]; strain LSAlta) [ng/mL] | EC50 ([1]; strain LSBjugn, read-out: EC50) [ng/mL] | EC50 ([1]; strain LSGulen, read-out: EC50) [ng/mL] | EC50 ([1]; strain LSHitra, read-out: EC50) [ng/mL] | EC50 ([1]; strain LSVeso, tested at only one concentration, read-out: EC50) [ng/mL] | acetyl cholin esterase inhibited ([2]; samples with bi-exponential decline rate (most likely heterozygot resistant), activity remained at this level) | enzyme activity inhibited ([2]; samples with mono-exponential decline rate (most likely wild type)) | Treatment efficacy (%) mean ([3]; strain LSAlta (fully sensitive)) [%] | Treatment efficacy (%) mean ([3]; strain LSHitra (resistant)) [%] | decrease the sensitivity of the enzyme [4] [fold] |
| --- | --- | --- | --- | --- | --- | --- | --- | --- | --- | --- |
| COP(=O)(OC)SCn1c(=O)oc2cc(Cl)cnc21 [azamethiphos, S-[(6-Chloro-2-oxo[1,3]oxazolo[4,5-b]pyridin-3(2H)-yl)methyl]O,O-dimethyl phosphorothioate] | 2.1 | 4.5 (≈ 0.0139 µM) | 1.8 (≈ 0.00554 µM) | 60 (≈ 0.185 µM) | > 100 | approx. 80% | inhibited completely | 100 | 50 |  |
| CCOP(=O)(OCC)Oc1ccc([N+](=O)[O-])cc1 [paraoxon] |  |  |  |  |  |  |  |  |  | 200 |

— EP3033433B1, “DETECTION OF ORGANOPHOSPHATE RESISTANCE IN CRUSTACEANS” (priority 2013, dated 2015)
